Experiments:
Type in all cases: cell-based
[1] = molecular target: T1, wild-type Androgen Receptor (AR-wt) (Homo sapiens (Human), UniProt P10275); experiment: LNCaP-AR-wt AG reporter assay (agonist mode); settings: for LNCaP-AR-wt AG pEC50 / EC50: agonist mode, pEC50 = −Log10(EC50 in Molar); for Emax: maximum % stimulation (agonist response) over the tested concentration range, read-out: LNCaP-AR-wt AG MAX % Stim; for EC50: read-out: LNCaP-AR-wt AG pEC50 (converted)
[2] = molecular target: T1, wild-type Androgen Receptor (AR-wt); experiment: LNCaP-AR-wt ANT reporter assay (antagonist mode); settings: for LNCaP-AR-wt ANT pIC50 / IC50: antagonist mode, pIC50 = −Log10(IC50 in Molar); for Emax: maximum % inhibition of R1881 control response over the tested concentration range, read-out: LNCaP-AR-wt ANT MAX % Inh; for IC50: read-out: LNCaP-AR-wt ANT pIC50 (converted)
[3] = molecular target: T2, F876L mutant Androgen Receptor (AR-F876L) (Homo sapiens (Human), UniProt P10275, F877L); experiment: LNCaP-AR-F876L ANT reporter assay (antagonist mode); settings: for LNCaP-AR-F876L ANT pIC50 / IC50: antagonist mode, pIC50 = −Log10(IC50 in Molar); for Emax: maximum % inhibition of R1881 control response over the tested concentration range, read-out: LNCaP-AR-F876L ANT MAX % Inh; for IC50: read-out: LNCaP-AR-F876L ANT pIC50 (converted)
T2 sequence (P10275 whole entry F877L): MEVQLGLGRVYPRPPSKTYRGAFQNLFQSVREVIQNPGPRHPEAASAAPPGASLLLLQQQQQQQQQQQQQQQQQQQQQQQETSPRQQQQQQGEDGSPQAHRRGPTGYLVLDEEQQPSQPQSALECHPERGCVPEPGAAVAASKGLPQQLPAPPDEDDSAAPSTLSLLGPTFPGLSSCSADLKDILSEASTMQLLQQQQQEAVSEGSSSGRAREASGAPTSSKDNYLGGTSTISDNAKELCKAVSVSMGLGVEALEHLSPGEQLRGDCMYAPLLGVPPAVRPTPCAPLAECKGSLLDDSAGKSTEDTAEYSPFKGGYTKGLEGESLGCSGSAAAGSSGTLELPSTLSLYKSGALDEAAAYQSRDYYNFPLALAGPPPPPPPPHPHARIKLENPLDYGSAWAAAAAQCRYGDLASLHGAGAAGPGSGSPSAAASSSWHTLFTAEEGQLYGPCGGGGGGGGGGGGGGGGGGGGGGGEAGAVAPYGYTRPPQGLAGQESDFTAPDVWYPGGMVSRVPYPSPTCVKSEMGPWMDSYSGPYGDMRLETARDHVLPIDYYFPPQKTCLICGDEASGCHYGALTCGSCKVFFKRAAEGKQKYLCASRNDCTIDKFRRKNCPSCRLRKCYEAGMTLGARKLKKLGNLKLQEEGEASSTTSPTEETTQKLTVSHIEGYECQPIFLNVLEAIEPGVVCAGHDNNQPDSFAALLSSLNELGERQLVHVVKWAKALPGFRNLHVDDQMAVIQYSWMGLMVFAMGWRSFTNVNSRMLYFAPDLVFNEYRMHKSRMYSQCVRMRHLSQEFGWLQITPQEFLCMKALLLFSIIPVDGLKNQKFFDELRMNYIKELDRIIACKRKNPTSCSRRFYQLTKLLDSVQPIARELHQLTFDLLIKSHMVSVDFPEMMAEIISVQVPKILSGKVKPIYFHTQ

[4] = molecular target: T2, F876L mutant Androgen Receptor (AR-F876L); experiment: LNCaP-AR-F876L AG reporter assay (agonist mode); settings: for LNCaP-AR-F876L AG pEC50 / EC50: agonist mode, pEC50 = −Log10(EC50 in Molar); for Emax: maximum % stimulation (agonist response) over the tested concentration range, read-out: LNCaP-AR-F876L AG MAX % Stim; for EC50: read-out: LNCaP-AR-F876L AG pEC50 (converted)

T1 sequence (P10275 whole entry): as the sequence (P10275 whole entry F877L) above, with L877F counted along it

| SMILES | Emax [1] | Emax [2] | Emax [3] | Emax [4] | EC50 [1] | IC50 [2] | IC50 [3] | EC50 [4] | LNCaP-AR-wt AG pEC50 [1] | LNCaP-AR-wt ANT pIC50 [2] | LNCaP-AR-F876L ANT pIC50 [3] | LNCaP-AR-F876L AG pEC50 [4] |
| --- | --- | --- | --- | --- | --- | --- | --- | --- | --- | --- | --- | --- |
| CC(C)(C)OC(=O)N1C2CCC1CC(c1ccc(N3C(=S)N(c4cnc(C#N)c(C(F)(F)F)c4)C(=O)C34CCC4)cc1)C2 (stereo not drawn) [Cpd 113, tert-butyl 3-[4-[6-[6-cyano-5-(trifluoromethyl)-3-pyridyl]-5-oxo-7-thioxo-6,8-diazaspiro[3.4]octan-8-yl]phenyl]-8-azabicyclo[3.2.1]octane-8-carboxylate] | 0.3% | 89% | 83.6% | 1.8% |  |  |  |  | <4.82 | 6.35 | 6.26 | <4.82 |
| CN1C2CCC1CC(c1ccc(N3C(=S)N(c4cnc(C#N)c(C(F)(F)F)c4)C(=O)C34CCC4)cc1)C2 (stereo not drawn) [Cpd 114, 5-(5-(4-(8-methyl-8-azabicyclo[3.2.1]octan-3-yl)phenyl)-8-oxo-6-thioxo-5,7-diazaspiro[3.4]octan-7-yl)-3-(trifluoromethyl)picolinonitrile] | -0.1% | 102% | 101% | 0.3% | > 15100 nM | 2690 nM | 1020 nM | > 15100 nM |  |  |  |  |
| N#Cc1ncc(N2C(=O)C3(CCC3)N(c3ccc(C4=CC5CCC(C4)N5)cc3)C2=S)cc1C(F)(F)F (stereo not drawn) [Cpd 116, 5-[8-[4-(8-azabicyclo[3.2.1]oct-3-en-3-yl)phenyl]-5-oxo-7-thioxo-6,8-diazaspiro[3.4]octan-6-yl]-3-(trifluoromethyl)pyridine-2-carbonitrile] | 0.5% | 102% | 102% | 0.8% |  |  |  |  | <4.82 | 5.96 | 6.01 | <4.82 |
| C#CCN1CC(Oc2ccc(N3C(=S)N(c4cnc(C#N)c(C(F)(F)F)c4)C(=O)C34CCC4)cc2)C1 [Cpd 117, 5-(8-oxo-5-(4-((1-(prop-2-yn-1-yl)azetidin-3-yl)oxy)phenyl)-6-thioxo-5,7-diazaspiro[3.4]octan-7-yl)-3-(trifluoromethyl)picolinonitrile] | 0% | 102% | 99.4% | 0.9% | > 15100 nM | 97.7 nM | 112 nM | > 15100 nM |  |  |  |  |
| N#Cc1ncc(N2C(=O)C3(CCC3)N(c3ccc(C4CC5CCC(C4)N5)cc3)C2=S)cc1C(F)(F)F (stereo not drawn) [Cpd 123, 5-(5-(4-(8-azabicyclo[3.2.1]octan-3-yl)phenyl)-8-oxo-6-thioxo-5,7-diazaspiro[3.4]octan-7-yl)-3-(trifluoromethyl)picolinonitrile] | 0.3% | 103% | 102% | 0.2% |  |  |  |  | <4.82 | 5.64 | 6.03 | <4.82 |
| CN1CCc2cc(N3C(=S)N(c4cnc(C#N)c(C(F)(F)F)c4)C(=O)C34CCC4)ccc2C1 [Cpd 125, 5-[8-(2-methyl-3,4-dihydro-1H-isoquinolin-6-yl)-5-oxo-7-thioxo-6,8-diazaspiro[3.4]octan-6-yl]-3-(trifluoromethyl)pyridine-2-carbonitrile] | 0.6% | 99.5% | 98.1% | 0% | > 15100 nM | 2690 nM | 1580 nM | > 15100 nM |  |  |  |  |
| CN1C2C=C(c3ccc(N4C(=S)N(c5cnc(C#N)c(C(F)(F)F)c5)C(=O)C45CCC5)cc3)CC1CC2 (stereo not drawn) [Cpd 127, 5-[8-[4-(8-methyl-8-azabicyclo[3.2.1]oct-3-en-3-yl)phenyl]-5-oxo-7-thioxo-6,8-diazaspiro[3.4]octan-6-yl]-3-(trifluoromethyl)pyridine-2-carbonitrile] | 0.5% | 102% | 102% | 0.4% |  |  |  |  | <4.82 | 6.23 | 6.37 | <4.82 |
| N#Cc1ncc(N2C(=O)C3(CCC3)N(C3CCC(NC(=O)c4ccccc4)CC3)C2=S)cc1C(F)(F)F (stereo not drawn) [Cpd 134, N-[4-[6-[6-cyano-5-(trifluoromethyl)-3-pyridyl]-5-oxo-7-thioxo-6,8-diazaspiro[3.4]octan-8-yl]cyclohexyl]benzamide] |  |  |  |  | > 15100 nM | 759 nM | 339 nM | > 15100 nM |  |  |  |  |
| N#Cc1ncc(N2C(=O)C3(CCC3)N(c3ccc(OC4C5CCC4CNC5)nc3)C2=S)cc1C(F)(F)F (stereo not drawn) [Cpd 139, 5-[8-[6-(3-azabicyclo[3.2.1]octan-8-yloxy)-3-pyridyl]-5-oxo-7-thioxo-6,8-diazaspiro[3.4]octan-6-yl]-3-(trifluoromethyl)pyridine-2-carbonitrile] | 1.2% | 102% | 99.8% | 0.1% | > 15100 nM | 589 nM | 513 nM | > 15100 nM |  |  |  |  |

More lines, main results first:

| Emax [1] | Emax [2] | Emax [3] | Emax [4] | EC50 [1] | IC50 [2] | IC50 [3] | EC50 [4] | SMILES | LNCaP-AR-wt AG pEC50 [1] | LNCaP-AR-wt ANT pIC50 [2] | LNCaP-AR-F876L ANT pIC50 [3] | LNCaP-AR-F876L AG pEC50 [4] |
| --- | --- | --- | --- | --- | --- | --- | --- | --- | --- | --- | --- | --- |
| 0.1% | 101% | 93.7% | 0.8% | > 15100 nM | 490 nM | 676 nM | > 15100 nM | CC(C)(C)OC(=O)N1CCc2cc(N3C(=S)N(c4cnc(C#N)c(C(F)(F)F)c4)C(=O)C34CCC4)ccc2C1 [Cpd 118, tert-butyl 6-[6-[6-cyano-5-(trifluoromethyl)-3-pyridyl]-5-oxo-7-thioxo-6,8-diazaspiro[3.4]octan-8-yl]-3,4-dihydro-1H-isoquinoline-2-carboxylate] |  |  |  |  |
| 0.2% | 100% | 101% | 1.1% | > 15100 nM | 200 nM | 339 nM | > 15100 nM | CC(=O)N1CCc2cc(N3C(=S)N(c4cnc(C#N)c(C(F)(F)F)c4)C(=O)C34CCC4)ccc2C1 [Cpd 120, 5-(5-(2-acetyl-1,2,3,4-tetrahydroisoquinolin-6-yl)-8-oxo-6-thioxo-5,7-diazaspiro[3.4]octan-7-yl)-3-(trifluoromethyl)picolinonitrile] |  |  |  |  |
| -0.1% | 97.9% | 99.8% | 0.5% | > 15100 nM | 138 nM | 129 nM | > 15100 nM | CC(C)(C)OC(=O)N1CCC(n2cc3cc(N4C(=S)N(c5cnc(C#N)c(C(F)(F)F)c5)C(=O)C45CCC5)ccc3n2)CC1 [Cpd 121, tert-butyl 4-[5-[6-[6-cyano-5-(trifluoromethyl)-3-pyridyl]-5-oxo-7-thioxo-6,8-diazaspiro[3.4]octan-8-yl]indazol-2-yl]piperidine-1-carboxylate] |  |  |  |  |
| 0.3% | 98% | 96.4% | 0.7% | > 15100 nM | 282 nM | 282 nM | > 15100 nM | CC(C)(C)OC(=O)N1CCC(Cn2cc3cc(N4C(=S)N(c5cnc(C#N)c(C(F)(F)F)c5)C(=O)C45CCC5)ccc3n2)CC1 [Cpd 122, tert-Butyl 4-[[5-[6-[6-cyano-5-(trifluoromethyl)-3-pyridyl]-5-oxo-7-thioxo-6,8-diazaspiro[3.4]octan-8-yl]indazol-2-yl]methyl]piperidine-1-carboxylate] |  |  |  |  |
| 0.3% | 103% | 103% | 0.5% | > 15100 nM | 115 nM | 39.8 nM | > 15100 nM | CC(=O)N1CCC(Cn2ncc3cc(N4C(=S)N(c5cnc(C#N)c(C(F)(F)F)c5)C(=O)C45CCC5)ccc32)CC1 [Cpd 124, 5-[8-[1-[(1-acetyl-4-piperidyl)methyl]indazol-5-yl]-5-oxo-7-thioxo-6,8-diazaspiro[3.4]octan-6-yl]-3-(trifluoromethyl)pyridine-2-carbonitrile] |  |  |  |  |
| 0.2% | 101% | 100% | 0.8% | > 15100 nM | 275 nM | 204 nM | > 15100 nM | N#Cc1ncc(N2C(=O)C3(CCC3)N(c3ccc4nn(CC5CCNCC5)cc4c3)C2=S)cc1C(F)(F)F [Cpd 126, 5-[5-oxo-8-[2-(4-piperidylmethyl)indazol-5-yl]-7-thioxo-6,8-diazaspiro[3.4]octan-6-yl]-3-(trifluoromethyl)pyridine-2-carbonitrile] |  |  |  |  |
| 0.2% | 101% | 101% | 0.3% | > 15100 nM | 1070 nM | 468 nM | > 15100 nM | N#Cc1ncc(N2C(=O)C3(CCC3)N(c3ccc4c(cnn4CC4CCNCC4)c3)C2=S)cc1C(F)(F)F [Cpd 128, 5-(8-Oxo-5-(1-(piperidin-4-ylmethyl)-1H-indazol-5-yl)-6-thioxo-5,7-diazaspiro[3.4]octan-7-yl)-3-(trifluoromethyl)picolinonitrile] |  |  |  |  |
| 0.5% | 101% | 98.7% | 0.9% | > 15100 nM | 372 nM | 148 nM | > 15100 nM | CN1CCC(Cn2ncc3cc(N4C(=S)N(c5cnc(C#N)c(C(F)(F)F)c5)C(=O)C45CCC5)ccc32)CC1 [Cpd 132, 5-(5-(1-((1-methylpiperidin-4-yl)methyl)-1H-indazol-5-yl)-8-oxo-6-thioxo-5,7-diazaspiro[3.4]octan-7-yl)-3-(trifluoromethyl)picolinonitrile] |  |  |  |  |

— patent publication US10981926B2 (Janssen Pharmaceutica NV, priority 2016, dated 2021)
